Earlier results as cited in article PMC6311893, “Computational prediction of plasma protein binding of cyclic peptides from small molecule experimental data using sparse modeling techniques” (BMC Bioinformatics, 2018).
Like-named read-outs stand apart in the source and are kept apart here.

System: plasma protein
Conditions: cited from earlier work
[1] = fraction bound to plasma protein, small molecule dataset, sheet 1-SM, ref Ingle et al.
[2] = fraction bound to plasma protein, small molecule dataset, sheet 1-SM, Set Dtr, ref Ingle et al.
[3] = fraction bound to plasma protein, small molecule dataset, sheet 1-SM (Set Dte = test, Dtr = training), ref Ingle et al.

## COc1cc2c(cc1OC)CN(C(=O)[C@H](C)N[C@@H](CCc1ccccc1)C(=O)O)[C@H](C(=O)O)C2 [moexiprilat]
[1]
  PPB (fb): 0.5

## CNS(=O)(=O)Cc1ccc2[nH]cc(CCN(C)C)c2c1 [Sumatriptan]
[1]
  PPB (fb): 0.17

## Cc1ccc(-c2ncc(Cl)cc2-c2ccc(S(C)(=O)=O)cc2)cn1 [Etoricoxib]
[2]
  PPB (fb): 0.92

## Clc1cccc(Cl)c1N=C1NCCN1 [Clonidine]
[2]
  PPB (fb): 0.34

## CCOC(=O)[C@H](CCc1ccccc1)N[C@@H](C)C(=O)N1[C@H](C(=O)O)C[C@H]2CCCC[C@@H]21 [trandolapril]
[3]
  PPB (fb): 0.84

## CN1CCOC(c2ccccc2)c2ccccc2C1 (stereo not shown) [nefopam]
[1]
  PPB (fb): 0.73

## CCCCC1C(=O)N(c2ccccc2)N(c2ccccc2)C1=O [phenylbutazone]
[1]
  PPB (fb): 0.98

## Nc1nnc(-c2cccc(Cl)c2Cl)c(N)n1 [lamotrigine]
[1]
  PPB (fb): 0.55

## CSc1ccc(/C=C2/C(C)=C(CC(=O)O)c3cc(F)ccc32)cc1 [Sulindac sulfide]
[1]
  PPB (fb): 0.94

## N[C@@H](Cc1c[nH]c2ccccc12)C(=O)O [Tryptophan]
[2]
  PPB (fb): 0.8

## NNc1nncc2ccccc12 [Hydralazine]
[2]
  PPB (fb): 0.87

## Cc1ccccc1OCC(O)CNCCOc1ccc(C(N)=O)cc1 (stereo not shown) [Tolamolol]
[1]
  PPB (fb): 0.91

## CCCc1nc(C(C)(C)O)c(C(=O)O)n1Cc1ccc(-c2ccccc2-c2nnn[nH]2)cc1 [Olmesartan]
[1]
  PPB (fb): 0.99

## CC(C(=O)O)c1ccc(C(=O)c2ccccc2)s1 (stereo not shown) [tiaprofenic acid]
[1]
  PPB (fb): 0.98

## Clc1ccc2nsnc2c1NC1=NCCN1 [Tizanidine]
[1]
  PPB (fb): 0.3

## O=C(O)/C=C/c1ccc(O)cc1 [p-coumaric acid]
[1]
  PPB (fb): 0.65

## CC1(C)S[C@@H]2[C@H](NC(=O)Cc3ccccc3)C(=O)N2[C@H]1C(=O)O [Penicillin G]
[2]
  PPB (fb): 0.62

## CN[C@@H]1[C@@H](O)[C@@H](O[C@@H]2[C@@H](O)[C@H](O[C@H]3O[C@H](CN)[C@@H](O)[C@H](O)[C@H]3O)[C@@H](N)C[C@H]2NC(=O)[C@@H](O)CN)OC[C@]1(C)O [Isepamicin]
[2]
  PPB (fb): 0.05

## COc1ccc2c3c1O[C@H]1[C@@H](O)C=C[C@H]4[C@@H](C2)N(C)CC[C@@]341 [Codeine]
plasma
  PPB (fb): 0.21

## CN(C)CC/C=C1/c2ccccc2Sc2ccc(Cl)cc21 [chlorprothixene]
[3]
  PPB (fb): 0.99

## C[C@@H](O)[C@H]1C(=O)N2C(C(=O)O)=C(S[C@@H]3CN[C@H](C(=O)N(C)C)C3)[C@H](C)[C@H]12 [Meropenem]
[2]
  PPB (fb): 0.08

## O=C1CN(/N=C/c2ccc([N+](=O)[O-])o2)C(=O)N1 [Nitrofurantoin]
[2]
  PPB (fb): 0.73

## Cc1c(N(C)CS(=O)(=O)O)c(=O)n(-c2ccccc2)n1C [dipyrone]
[3]
  PPB (fb): 0.6

## O=c1[nH]c2ccccc2n1CCCN1CCN(C(c2ccccc2)c2ccccc2)CC1 [oxatomide]
[1]
  PPB (fb): 0.91

## CN(CCOc1ccc(NS(C)(=O)=O)cc1)CCc1ccc(NS(C)(=O)=O)cc1 [Dofetilide]
[2]
  PPB (fb): 0.64

## O=C(O)C1N=C(c2ccccc2)c2cc(Cl)ccc2NC1=O (stereo not shown) [clorazepic acid]
plasma
  PPB (fb): 0.91

## CO[C@]1(CC[C@@H](C)CO[C@@H]2O[C@H](CO)[C@@H](O)[C@H](O)[C@H]2O)O[C@H]2C[C@H]3[C@@H]4CC=C5C[C@@H](O[C@@H]6O[C@H](CO)[C@@H](O[C@@H]7O[C@@H](C)[C@H](O)[C@@H](O)[C@H]7O)[C@H](O)[C@H]6O[C@@H]6O[C@@H](C)[C@H](O)[C@@H](O)[C@H]6O)CC[C@]5(C)[C@H]4CC[C@]3(C)[C@H]2[C@@H]1C [methyl protodioscin]
[1]
  PPB (fb): 0.84

## CN1C(C(=O)Nc2ccccn2)=C(O)c2sccc2S1(=O)=O [Tenoxicam]
[3]
  PPB (fb): 0.99

## Cc1cccc(C)c1NC(=O)C(C)N (stereo not shown) [Tocainide]
[1]
  PPB (fb): 0.13

## CC(Oc1c(Cl)cccc1Cl)C(=O)NC1C(=O)N2C1SC(C)(C)C2C(=O)O (stereo not shown) [penicillin57]
[1]
  PPB (fb): 0.96

## CCC(COc1c(Cl)cccc1Cl)C(=O)NC1C(=O)N2C1SC(C)(C)C2C(=O)O (stereo not shown) [penicillin63]
[1]
  PPB (fb): 0.95

## Cc1ccc(N(CC2=NCCN2)c2cccc(O)c2)cc1 [phentolamine]
[1]
  PPB (fb): 0.54

## C=C(CC(=O)c1ccc(-c2ccccc2Cl)cc1)C(=O)O [Itanoxone]
[1]
  PPB (fb): 0.98

## O=C1Nc2ccc(Cl)cc2[C@@](C#CC2CC2)(C(F)(F)F)O1 [efavirenz]
[1]
  PPB (fb): 0.99

## OC(CNCC(O)C1CCc2cc(F)ccc2O1)C1CCc2cc(F)ccc2O1 (stereo not shown) [nebivolol]
[3]
  PPB (fb): 0.98

## COCCc1ccc(OCC(O)CNC(C)C)cc1 (stereo not shown) [Metoprolol]
[3]
  PPB (fb): 0.11

## CCc1ccc(CCOc2ccc(CC3SC(=O)NC3=O)cc2)nc1 (stereo not shown) [pioglitazone]
[1]
  PPB (fb): 0.99

## CC1(C)O[C@@H]2C[C@H]3[C@@H]4C[C@H](F)C5=CC(=O)C=C[C@]5(C)[C@H]4[C@@H](O)C[C@]3(C)[C@]2(C(=O)CO)O1 [flunisolide]
[3]
  PPB (fb): 0.5

## COc1c(C)nc2ccccc2c1C(=O)NC1C(=O)N2C1SC(C)(C)C2C(=O)O (stereo not shown) [penicillin77]
[1]
  PPB (fb): 0.62

## OCCOCCN1CCN(C2=Nc3ccccc3Sc3ccccc32)CC1 [quetiapine]
[1]
  PPB (fb): 0.83

## COc1ccc(-n2cc(C(=O)O)c(=O)c3cc(F)c(N4CCNCC4)cc32)cc1 [5c(p-OCH3)]
[3]
  PPB (fb): 0.31

## CC1(C)S[C@@H]2[C@H](NC(=O)[C@H](NC(=O)N3CCN(S(C)(=O)=O)C3=O)c3ccccc3)C(=O)N2[C@H]1C(=O)O [Mezlocillin]
[2]
  PPB (fb): 0.31

## NC[C@H]1O[C@H](O[C@H]2[C@H](O)[C@@H](O[C@H]3O[C@H](CO)[C@@H](O)[C@H](N)[C@H]3O)[C@H](N)C[C@@H]2N)[C@H](N)C[C@@H]1O [Tobramycin]
[3]
  PPB (fb): 0.05

## C#C[C@]1(O)CC[C@H]2[C@@H]3CCC4=CCCC[C@@H]4[C@H]3C(=C)C[C@@]21CC [desogestrel]
[3]
  PPB (fb): 0.98

## CC1(C)SC2C(NC(=O)C(NC(=O)c3ccc(S(N)(=O)=O)cc3)c3ccccc3)C(=O)N2C1C(=O)O (stereo not shown) [penicillin35]
[1]
  PPB (fb): 0.42

## O=C1NC(c2ccccc2)(c2ccccc2)C(=O)N1COP(=O)(O)O [fosphenytoin]
[1]
  PPB (fb): 0.95

## CCC(Oc1ccccc1)C(=O)NC1C(=O)N2C1SC(C)(C)C2C(=O)O (stereo not shown) [penicillin50]
[3]
  PPB (fb): 0.86

## NCc1ccccc1CC(=O)N[C@@H]1C(=O)N2C(C(=O)O)=C(CSc3nnnn3CC(=O)O)CS[C@H]12 [Ceforanide]
[2]
  PPB (fb): 0.81

## Cc1onc(-c2ccccc2Cl)c1C(=O)N[C@@H]1C(=O)N2[C@@H]1SC(C)(C)[C@@H]2C(=O)O [cloxacillin]
[3]
  PPB (fb): 0.95

## N=C(N)NC(=O)c1cnn(-c2cccc3ncccc23)c1C1CC1 [zoniporide]
[2]
  PPB (fb): 0.5

## Cc1cccc(C)c1NC(=O)c1cc(S(N)(=O)=O)c(Cl)cc1O [xipamide]
[2]
  PPB (fb): 0.99

## CCOC(=O)[C@H](CCc1ccccc1)N[C@@H](C)C(=O)N1Cc2ccccc2C[C@H]1C(=O)O [quinapril]
[1]
  PPB (fb): 0.97

## quinagolide
plasma
  PPB (fb): 0.9

## COc1cc(Cc2cnc(N)nc2N)c2c(c1OC)OC(C1CC1)C=C2 (stereo not shown) [iclaprim]
[1]
  PPB (fb): 0.93

## [H]/N=C(/N)N[C@H]1[C@H](O)[C@@H](O)[C@H](O[C@@H]2O[C@@H](C)[C@](O)(C=O)[C@H]2O[C@@H]2O[C@@H](CO)[C@H](O)[C@@H](O)[C@@H]2NC)[C@@H](N/C(N)=N\[H])[C@@H]1O [Streptomycin]
[1]
  PPB (fb): 0.37
